These results are taken from patent US6548555B1, “Basic drug compositions with enhanced bioavailability” (Pfizer Inc, priority 1999, dated 2003).

The conditions of data set [1]: HPMCAS dispersions, dissolution tests at pH 4.0; cited from earlier work.
Data set [2] in a line: Dissolution test by microcentrifuge method, Example 6. Type of data set: physicochemical. Conditions: 37° C., 2.7 mg drug, 3.6 mg polymer or none, 1.8 mL. On the procedure: Dissolution performance was measured at 37° C. using a microcentrifuge method. For these tests, 2.7 mg drug in 0.9 mLs 25% gastric solution/75% HPLC water was added to each of 6 microcentrifuge tubes. At time 0, 0.9mLs 2×PBS without polymer was added to tubes 1 and 2, and 0.9 mLs 2×PBS containing 3.6 mg HPMCAS-MF or cellulose acetate trimellitate (CAT) was added to tubes 3 and 4, or 5 and 6. Samples were taken after 4, 10, 20, 40, 90, and 180 minutes, analyzed by HPLC, and compound concentrations were calculated. Gastric solution is 84 mM HCl, 34 mM NaCl, pH 1.2. PBS is phosphate buffered saline: 20 mM sodium phosphate, 4.7 mM potassium phosphate, 8.2 mM NaCl, 0.2 mM KCl, pH 6.5. “2×PBS” is a solution in which the components of PBS are present at 2-fold higher concentration.

A short description of data set [3]: Solubility of the Example 6 drug at pH 2 and pH 6.8. The following applies: thermodynamic from solid. The class given is physicochemical. On the procedure: A test drug is dissolved in a pH 1-2 environment, typically aqueous deionized distilled water adjusted to a target pH within the aforesaid pH 1-2 range by adding an appropriate amount of hydrochloric acid. The amount of drug added is an amount sufficient to saturate the aqueous test medium. The test medium can be agitated, typically gently, by means of a stirring bar, overhead stirrer, or the like. Typically the test medium is left to sit (while being agitated) for several hours, typically overnight. The sample can then be filtered or centrifuged as previously described, and solubility in the filtrate or supernate can then be measured by determining the concentration with any suitable means of detection appropriate to the drug. Likewise, the solubility is also determined at pH 5 to 7. If the drug's pH 1-2 solubility is 3- or more-fold its pH 5-7 solubility, then the drug will benefit from this invention.

Structures are written as SMILES.

As for `CCC1OC(=O)CC(O)C(C)C(OC2OC(C)C(OC3CC(C)(O)C(OC(=O)Cc4ccc(OC)cc4)C(C)O3)C(N(C)C)C2O)C(CC=O)CC(C)C(=O)C=CC(C)=CC1COC1OC(C)C(O)C(OC)C1OC` (stereo not drawn) [MAT, 4″-O-(4-methoxyphenyl)acetyltylosin], in data set [1], the “supersaturated concentration relative to crystalline MAT” value is 9 fold.

The solubility is the concentration that dissolves in the medium under given conditions. Read a high solubility as a readily soluble substance. Take `CN1CCN(c2ccccc2/C=C2\SCCN(c3ccc(Cl)c(Cl)c3)C2=O)CC1.Cl.O` [Z-4-(3,4-dichlorophenyl)-2-[2-(4-methylpiperazin-1-yl)-benzylidene]-thiomorpholin-3-one hydrochloride monohydrate]: the “Drug Conc” value in data set [2] (4 min after adding 2xPBS to drug in 25% gastric solution) turned out to be 518 µg/mL; in data set [2] (10 min after adding 2xPBS to drug in 25% gastric solution), 459 µg/mL; in data set [2] (20 min after adding 2xPBS to drug in 25% gastric solution) it was 432 µg/mL; in data set [2] (40 min after adding 2xPBS to drug in 25% gastric solution), 317 µg/mL; in data set [2] (90 min after adding 2xPBS to drug in 25% gastric solution) it was 263 µg/mL; in data set [2] (180 min after adding 2xPBS to drug in 25% gastric solution), 204 µg/mL. Also, the solubility is 3000 µg/mL in data set [3] (deionized distilled water adjusted with hydrochloric acid, pH 2, simulated gastric fluid) and 12 µg/mL in data set [3] (pH 6.8, aqueous buffer).
